Test results reported in patent US10364240B2, “Aryl sulfonamides” (ChemoCentryx, Inc., priority 2002, dated 2019).

test system: MDR1a-knockout mice; experiment: MDR1a-knockout mice colitis model, prophylactic administration; format: in vivo; settings: female mice, 50 mg/kg twice a day subcutaneous, 14 weeks from age 10 weeks
Procedure: The MDR1a-knockout mice, which lack the P-glycoprotein gene, spontaneously develop colitis under specific pathogen-free condition. The pathology in these animals has been characterized as Th1-type T cell-mediated inflammation similar to ulcerative colitis in humans. Disease normally begins to develop at around 8-10 weeks after birth. However the ages at which disease emerges and the ultimate penetrance level often vary considerably among different animal facilities.
[drawing 328] was evaluated by prophylactic administration for its ability to delay disease onset. Female mice (n=34) were dosed with 50 mg/kg twice a day by subcutaneous injections for 14 consecutive weeks starting at age 10 weeks. […] Moreover, the number of mice developing diarrhea was also lower among compound-treated mice (17%), compared to mice receiving vehicle alone (24%)(FIG. 1).

Row | Structure (SMILES) | IBD-associated growth retardation
1 | CC(C)(C)c1ccc(S(=O)(=O)Nc2ccc(Cl)cc2C(=O)c2ccncc2)cc1 | prevented IBD-associated growth retardation

same assay, conditions: female mice, 50 mg/kg twice a day subcutaneous, 14 weeks from age 10 weeks; vehicle 24%

Row | Structure (SMILES) | number of mice developing diarrhea
2 | CC(C)(C)c1ccc(S(=O)(=O)Nc2ccc(Cl)cc2C(=O)c2ccncc2)cc1 | 17%

biological target: T1, CCR9 (Homo sapiens, UniProt P51686); experiment: chemotaxis (conventional migration) assay and/or calcium mobilization (calcium flux) assay; format: cell-based; settings: either or both of the chemotaxis assay and calcium mobilization assays; MOLT-4 cells, TECK
T1 construct: CCR9-expressing cells (such as a T cell line MOLT-4 cells)
T1 sequence (P51686 1-369): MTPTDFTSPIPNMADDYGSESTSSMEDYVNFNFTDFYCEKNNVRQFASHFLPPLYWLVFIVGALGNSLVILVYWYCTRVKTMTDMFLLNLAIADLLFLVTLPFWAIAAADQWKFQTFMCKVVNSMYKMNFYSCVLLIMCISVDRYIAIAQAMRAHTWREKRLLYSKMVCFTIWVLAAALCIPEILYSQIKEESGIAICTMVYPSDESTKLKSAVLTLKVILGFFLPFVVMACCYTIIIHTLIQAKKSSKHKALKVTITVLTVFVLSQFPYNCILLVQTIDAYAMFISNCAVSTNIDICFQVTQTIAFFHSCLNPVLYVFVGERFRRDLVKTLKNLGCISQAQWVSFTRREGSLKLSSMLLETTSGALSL
Procedure: MOLT-4 cells were obtained from the American Type Culture Collection (Manassas, Va.) and cultured in RPMI tissue culture medium supplemented with 10% fetal calf serum (FCS) in a humidified 5% CO2 incubator at 37° C. Recombinant human chemokine protein TECK was obtained from R&D Systems (Minneapolis, Minn.). ChemoTX® chemotaxis microchambers were purchased from Neuro Probe (Gaithersburg, Md.). CyQUANT® cell proliferation kits were purchased from Molecular Probes (Eugene, Oreg.). Calcium indicator dye Fluo-4 AM was purchased from Molecular Devices (Mountain View, Calif.).
Conventional migration assay was used to determine the efficacy of potential receptor antagonists in blocking migration mediated through CCR9. This assay was routinely performed using the ChemoTX® microchamber system with a 5-μm pore-sized polycarbonate membrane. To begin such an assay, MOLT-4 cells were harvested by centrifugation of cell suspension at 1000 PRM on a GS-6R Beckman centrifuge. The cell pellet was resuspended in chemotaxis buffer (HBSS with 0.1% BSA) at 5×10^6 cells/mL. Test compounds at desired concentrations were prepared from 10 mM stock solutions by serial dilutions in chemotaxis buffer. An equal volume of cells and compounds were mixed and incubated at room temperature for 15 minutes. Afterwards, 20 μL of the mixture was transferred onto the porus membrane of a migration microchamber, with 29 μL of 50 nM chemokine TECK protein placed at the lower chamber. Following a 150-minute incubation at 37° C., during which cells migrated against the chemokine gradient, the assay was terminated by removing the cell drops from atop the filter. To quantify cells migrated across the membrane, 5 μL of 7× CyQUANT® solution was added to each well in the lower chamber, and the fluorescence signal measured on a Spectrafluor Plus fluorescence plate reader (TECAN, Durham, N.C.). The degree of inhibition was determined by comparing migration signals betweeen compound-treated and untreated cells. IC50 calculation was further performed by non-linear squares regression analysis using Graphpad Prism (Graphpad Software, San Diego, Calif.).
Calcium flux assay measures an increase in intracellular calcium following ligand-induced receptor activation. In the screen of CCR9 antagonists, it was used as a secondary assay carried out on a FLIPR® machine (Molecular Devices, Mountain View, Calif.). To begin an assay, MOLT-4 cells were harvested by centrifugation of cell suspension, and resuspended to 1.5×10^6 cells/mL in HBSS (with 1% fetal calf serum). Cells were then labeled with a calcium indicator dye Fluo-4 AM for 45 minutes at 37° C. with gentle shaking. Following incubation, cells were pelletted, washed once with HBSS and resuspended in the same buffer at a density of 1.6×10^6 cells/mL. One hundred microliters of labeled cells were mixed with 10 μL of test compound at the appropriate concentrations on an assay plate. […] The degree of inhibition was determined by comparing calcium signals between compound-treated and untreated cells. IC50 calculations were further performed by non-linear squares regression analysis using Graphpad Prism (Graphpad Software, San Diego, Calif.).

Row | IC50 | Structure (SMILES)
3 | < 1000 nM | Cc1cc(C(=O)c2cc(Cl)ccc2NS(=O)(=O)c2ccc(-c3ncco3)cc2)ccn1
4 | < 1000 nM | CC(C)(c1ccc(S(=O)(=O)Nc2ccc(Cl)cc2C(=O)c2ccccn2)cc1)c1ncco1
5 | < 1000 nM | CC1(c2ccc(S(=O)(=O)Nc3ccc(Cl)cc3C(=O)c3cc[nH]n3)cc2)CCOCC1
6 | < 1000 nM | CC1COC(C)(c2ccc(S(=O)(=O)Nc3ccc(Cl)cc3C(=O)c3ccncc3)cc2)O1 (stereo not drawn)
7 | < 1000 nM | C[C@@H]1CC(c2ccc(S(=O)(=O)Nc3ccc(Cl)cc3C(=O)c3cccnc3)cc2)C[C@H](C)O1 (stereo partly drawn)
8 | < 1000 nM | Cc1ccc(C(=O)c2cc(Cl)ccc2NS(=O)(=O)c2ccc(C3C[C@@H](C)O[C@@H](C)C3)cc2)cn1 (stereo partly drawn)
9 | < 1000 nM | C[C@@H]1CN(c2ccc(S(=O)(=O)Nc3ccc(Cl)cc3C(=O)c3cccnc3)cc2F)C[C@H](C)O1
10 | < 1000 nM | Cc1ccc(S(=O)(=O)Nc2ccc(Cl)cc2C(=O)c2ccncc2)cc1
11 | < 1000 nM | Cc1ccc(C(=O)c2cc(Cl)ccc2NS(=O)(=O)c2ccc(S(C)(=O)=O)cc2)cn1
12 | < 1000 nM | CS(=O)(=O)c1ccc(S(=O)(=O)Nc2ccc(Br)cc2C(=O)c2ccncc2)cc1
13 | < 1000 nM | CC(C)(C)c1ccc(S(=O)(=O)Nc2ccc(Cl)cc2C(=O)c2ncccn2)cc1
14 | < 1000 nM | O=C(c1ccncc1)c1cc(Br)ccc1NS(=O)(=O)c1ccc(OC(F)(F)F)cc1
15 | < 1000 nM | CC(C)(CO)c1ccc(S(=O)(=O)Nc2ccc(Cl)cc2C(=O)c2cc[n+]([O-])cc2)cc1
16 | < 1000 nM | CC(=O)OCC(C)(C)c1ccc(S(=O)(=O)Nc2ccc(Cl)cc2C(=O)c2ccncc2)cc1
17 | < 1000 nM | O=C(c1cccnc1)c1cc(Cl)ccc1NS(=O)(=O)c1ccc(-c2cnco2)cc1
18 | < 1000 nM | Cc1c(C(=O)c2cc(Cl)ccc2NS(=O)(=O)c2ccc(OC(C)C)cc2)ccc[n+]1[O-]
19 | < 1000 nM | O=C(c1ccncc1)c1cc(Cl)ccc1NS(=O)(=O)c1ccc(Br)cc1
20 | < 1000 nM | CSc1cc(C(=O)c2cc(Cl)ccc2NS(=O)(=O)c2ccc(C(C)(C)C)cc2)ccn1
21 | < 1000 nM | COc1cc(C(=O)c2cc(Cl)ccc2NS(=O)(=O)c2ccc(C(C)(C)C)cc2)ccn1
22 | < 1000 nM | COC(=O)CCc1ccc(S(=O)(=O)Nc2ccc(Cl)cc2C(=O)c2ccc(C)nc2)cc1
23 | < 1000 nM | Cc1ccc(C(=O)c2cc(Cl)ccc2NS(=O)(=O)c2ccc(OC(F)(F)F)cc2)c[n+]1[O-]
24 | < 1000 nM | Cc1ccc(C(=O)c2cc(Cl)ccc2NS(=O)(=O)c2ccc(OC(C)C)cc2)c[n+]1[O-]

Row | IC50 | Structure (SMILES)
25 | < 1000 nM | CC(C)(C)c1ccc(S(=O)(=O)Nc2ccc(Cl)cc2C(=O)c2ccc(S(C)(=O)=O)nc2)cc1
26 | < 1000 nM | O=C(c1ncccn1)c1cc(Cl)ccc1NS(=O)(=O)c1ccc(-c2cnco2)cc1
27 | < 1000 nM | O=C(c1cc[n+]([O-])cc1)c1cc(Cl)ccc1NS(=O)(=O)c1ccc(-c2cnco2)cc1
28 | < 1000 nM | CC(C)(C)c1ccc(S(=O)(=O)Nc2ccc(Cl)cc2C(=O)c2cccc[n+]2[O-])cc1
29 | < 1000 nM | Cc1nc(C)c(-c2ccc(S(=O)(=O)Nc3ccc(Cl)cc3C(=O)c3ccncc3)cc2)o1
30 | < 1000 nM | O=C(c1ccncc1)c1cc(Cl)ccc1NS(=O)(=O)c1ccc2c(c1)CNCC2
31 | < 1000 nM | CCc1ccc(S(=O)(=O)Nc2ccc(Br)cc2C(=O)c2ccncc2)cc1
32 | < 1000 nM | COC(=O)CCc1ccc(S(=O)(=O)Nc2ccc(Cl)cc2C(=O)c2cccnc2C)cc1
33 | < 1000 nM | CC(C)(C)c1ccc(S(=O)(=O)Nc2ccc(Cl)cc2C(=O)c2cnccn2)cc1
34 | < 1000 nM | CC(C)(C)c1ccc(S(=O)(=O)Nc2c(Cl)cccc2C(=O)c2ccncc2)cc1
35 | < 1000 nM | Cc1c(C(=O)c2cc(Cl)ccc2NS(=O)(=O)c2ccc(OC(F)(F)F)cc2)ccc[n+]1[O-]
36 | < 1000 nM | O=C(c1cccnc1)c1cc(Cl)ccc1NS(=O)(=O)c1ccc(-c2cocn2)cc1
37 | < 1000 nM | CC(C)(c1ccc(S(=O)(=O)Nc2cc(F)c(F)cc2C(=O)c2cccnc2)cc1)c1ncco1
38 | > 1000 nM | CS(=O)(=O)c1ccc(S(=O)(=O)Nc2ccc(Cl)cc2C(=O)c2cccnc2)cc1
39 | > 1000 nM | COc1ccc(S(=O)(=O)Nc2ccc(Cl)cc2C(=O)c2ccccn2)cc1
40 | > 1000 nM | Cc1cc(C(=O)c2cc(Cl)ccc2NS(=O)(=O)c2ccc(S(C)(=O)=O)cc2)ccn1
41 | > 1000 nM | COC(=O)CCc1ccc(S(=O)(=O)Nc2ccc(Cl)cc2C(=O)c2ccnc(C)c2)cc1
42 | > 1000 nM | O=C(c1cccnc1)c1cc(Cl)ccc1NS(=O)(=O)c1ccc(-c2nccs2)cc1
43 | > 1000 nM | C[C@H]1OC(C)(c2ccc(S(=O)(=O)Nc3ccc(Cl)cc3C(=O)c3ccncc3)cc2)O[C@@H]1C
44 | < 1000 nM | COc1c(Cl)ccc(NS(=O)(=O)c2ccc(C(C)(C)C)cc2)c1C(=O)c1ccncc1 [drawing 475]
45 | > 1000 nM | COc1c(Cl)ccc(NS(=O)(=O)c2ccc(C(C)(C)C)cc2)c1C(=O)c1ccncc1 [drawing 520]
